From patent publication US7045512B2 (priority 2003, dated 2006) come the findings set out here.

Each structure is given as a SMILES string.

In test [1] the test system is Phytophthora infestans. In words: microbe, parasite or virus in culture. The class given is cell-based. The following applies: Phytophthora infestans, 48 h, read-out: Percent Control Phytophthora infestants.
A further test relates to Barley Powdery Mildew. The test is described as follows: Soil drench for the control of barley powdery mildew. Particulars: 300 ppm, greenhouse soil drench. The class given is in vivo, Erysiyphe graminis f.sp. hordei. How it is done:
(§1) Soil Drench for the Control of Barley or Cucumber Powdery Mildew
(§2) Technical grade material formulated as described for foliar sprays is dispensed at defined rates (ml/cm^3) into the soil in the pots for barley and cucumber in the stages as described for the foliar sprays. Treated plants are inoculated, within 24 hours with the respective powdery mildew species as described for the foliar spray tests. Inoculated plants are kept in the greenhouse for 6–8 days for disease development. Disease severity is examined and the % control is calculated as [% disease on untreated plants−% disease on treated plants]/% disease on untreated plants. The results of these tests are shown in Table 2B below under the heading “Drench Application—Barley Powdery Mildew” and “Drench Application—Cucumber Powdery Mildew”.

The subject of test [2] is Phytophthora infestans. The class given is in vivo. Particulars: 300 ppm, greenhouse foliar spray, tomato plants.
The subject of the next test is Rhizoctonia solani. In words: microbe, parasite or virus in culture. The class given is cell-based. The following applies: Rhizoctonia solani, 48 h, read-out: Percent Control Rhizoctonia solani.
The next test concerns Pythium ultimum. In words: microbe, parasite or virus in culture. Particulars: Globisporangium ultimum, 48 h, read-out: Percent Control Pythium ultimum. Type of test: cell-based.
For the next test, the system named is Fusarium nivale. The test is described as follows: microbe, parasite or virus in culture. The class given is cell-based. The following applies: Microdochium nivale, 48 h, read-out: Percent Control Fusarium nivale.
In another test the test system is Pyricularia oryzae. The test is described as follows: whole plant or invertebrate. Type of test: in vivo. The following applies: Pyricularia oryzae, foliar, read-out: Foliar Application (Percent Control) Rice Blast.
A further test has as its system Sclerotium rolfsii. Type of test: cell-based.
The next test deals with Cucumber Powdery Mildew. The test is described as follows: Soil drench for the control of cucumber powdery mildew. The class given is in vivo. Particulars: 300 ppm, greenhouse soil drench. On the procedure: as §1, §2
Test [3] relates to Erysiyphe graminis f.sp. hordei. The test is described as follows: Foliar spray for the control of barley powdery mildew. Type of test: in vivo. The following applies: Hordeum vulgare, greenhouse foliar spray, barley plants, read-out: Foliar Application (Percent Control) Barley Powdery Mildew. How it is done:
Foliar Spray for the Control of Barley Powdery Mildew caused by Erysiyphe graminis f.sp. hordei
Technical grade material at defined ppm rates (w/v) in an acetone:water mixture (1:9) containing 0.1% Tween 20 (v/v) is sprayed to near run-off onto 7-days-old greenhouse-grown barley plants (var. “Robust”) at the cotyledon stage. Treated plants are inoculated within 24 hours by brushing mildew-infected plants over the treated plants. Inoculated plants are kept in the greenhouse for 6–8 days for disease development. Disease severity is examined and the % control is calculated as [% disease on untreated plants−% disease on treated plants]/% diseases in untreated plants. The results of these tests are shown in Table 2A below under the heading “Foliar Application—Barley Powdery Mildew”.

Another test deals with Helminthosporium sativum. The test is described as follows: Foliar spray for the control of barley blotch. Particulars: Helminthosporium, greenhouse foliar spray, barley plants, read-out: Foliar Application (Percent Control) Barley Blotch. Type of test: in vivo. How it is done:
Foliar Spray for the Control of Barley Blotch Caused by Helminthosporium sativum
Technical grade material at defined ppm rates (w/v) in an acetone:water mixture (1:9) containing 0.1% Tween 20 (v/v) is sprayed to near run-off onto 7-days-old greenhouse-grown barley plants (var. “Robust”) at the cotyledon stage. Treated plants are inoculated within 24 hours from spraying with an aqueous suspension of approximately 15,000 conidia/ml of Helminthosporium sativum grown on artificial medium. Inoculated plants are placed into a high humidity chamber for 24 hr and then transferred to the greenhouse for 4–5 days for disease development. Disease severity is examined and the % control is calculated as [% disease on untreated plants−% disease on treated plants]/% disease on untreated plants.
The results of these tests are shown in Table 2A below under the heading “Foliar Application—Barley Blotch”.

For test [4], the system named is Botrytis cinerea. In words: microbe, parasite or virus in culture. The following applies: Botrytis cinerea, 48 h, read-out: Percent Control Botrytis cinerea. The class given is cell-based.
For test [5], the system named is Botrytis cinerea. The test is described as follows: Foliar spray for the control of geranium gray mold. Particulars: 300 ppm, greenhouse foliar spray, geranium plants. Type of test: in vivo. On the procedure: Foliar Spray for the Control of Geranium Gray Mold Caused by Botrytis cinerea
Technical grade material at defined ppm rates (w/v) in an acetone:water mixture (1:9) containing 0.1% Tween 20 (v/v) is sprayed to near run-off onto mature greenhouse-grown geranium plants (var. “Pinto White”) in the second leaf stage. Treated plants are inoculated within 24 hours with an aqueous suspension of approximately 100,000 conidia/ml of Botrytis cinerea grown on artificial medium. Inoculated plants are placed into a high humidity chamber for 5 days and then transferred to the greenhouse for one day for disease development. Disease severity is examined and the % control is calculated as [% disease on untreated plants−% disease on treated plants]/% disease on untreated plants. The results of these tests are shown in Table 2A below under the heading “Foliar Application—Geranium Gray Mold”.

The next test concerns Uromyces appendiculatus. In words: Foliar spray for the control of bean rust. Type of test: in vivo. Particulars: 300 ppm, greenhouse foliar spray, Pinto bean plants. On the procedure:
Foliar Spray for the Control of Bean Rust Caused by Uromyces appendiculatus
Technical grade material at defined ppm rates (w/v) in an acetone:water mixture (1:9) containing 0.1% Tween 20 (v/v) is sprayed to near run-off onto 10-days-old greenhouse-grown Pinto bean plants (var. “Othello”) in the second leaf stage. Treated plants are inoculated within 24 hours with an aqueous suspension of approximately 20,000 uredospores of Uromyces appendiculatus harvested from rust-infected plants. Inoculated plants are placed into a high humidity chamber for 24 hr and then transferred to the greenhouse for two weeks for disease development. Disease severity is examined and the % control is calculated as [% disease on untreated plants−% disease on treated plants]/% disease on untreated plants. The results of these tests are shown in Table 2A below under the heading “Foliar Application—Bean Rust”.

Regarding `CC(C)OC(=O)NNc1ccc(Oc2cccc(C(F)(F)F)c2)cc1` [Compound 1, 1-methylethyl 2-[4-[3-(trifluoromethyl)phenoxy]phenyl]hydrazinecarboxylate], the inhibition of growth at 100 ppm is 100% with Phytophthora infestans [1]; 91% in the test on Rhizoctonia solani; 100% in the test on Pythium ultimum; 29% in the test with Fusarium nivale; 100% in the test on Botrytis cinerea [4]. In the test with Barley Powdery Mildew, the “Drench Application (Percent Control) Barley Powdery Mildew” value was found to be 0%. Besides, the “Foliar Application (Percent Control) Tomato Late Blight” value with Phytophthora infestans [2] amounted to 12%. The pest or weed control at 300 ppm with Pyricularia oryzae is 79%; in [3] it was 90%; in the test with Helminthosporium sativum, 97%. The “Percent Control Sclerotium rolfsii” value in the test on Sclerotium rolfsii is 100%. Further, the “Drench Application (Percent Control) Cucumber Powdery Mildew” value in the test with Cucumber Powdery Mildew is on record as 0%. In addition, the “Foliar Application (Percent Control) Geranium Gray Mold” value in the test with Botrytis cinerea [5] is listed as 87%. For the same compound, in the test on Uromyces appendiculatus, the “Foliar Application (Percent Control) Bean Rust” value was 97%.

With `CC(C)OC(=O)NN(C(=O)C(F)(F)F)c1ccc(Oc2cccc(C(F)(F)F)c2)cc1` [Compound 2, 1-methylethyl 2-(trifluoroacetyl)-2-[4-[3-(trifluoromethyl)phenoxy]phenyl]-hydrazine carboxylate], the inhibition of growth at 100 ppm worked out at 100% in the test with Phytophthora infestans [1]; 82% in the test with Rhizoctonia solani; 100% in the test on Pythium ultimum; 20% in the test on Fusarium nivale; 90% with Botrytis cinerea [4]. In the test with Barley Powdery Mildew, the “Drench Application (Percent Control) Barley Powdery Mildew” value came to 0%. The figures for the pest or weed control at 300 ppm (in the test with Pyricularia oryzae; in [3]; in the test with Helminthosporium sativum) were 15%, 25% and 99%, respectively. Moreover, in the test on Sclerotium rolfsii, the “Percent Control Sclerotium rolfsii” value came to 67%. For the same compound, the “Drench Application (Percent Control) Cucumber Powdery Mildew” value in the test with Cucumber Powdery Mildew was 0%. Besides, the “Foliar Application (Percent Control) Bean Rust” value in the test with Uromyces appendiculatus is recorded as 0%.

As to `CC(C)OC(=O)NN(C)c1ccc(Oc2cccc(C(F)(F)F)c2)cc1` [Compound 3, 1-methylethyl 2-methyl-2-[4-[3-(trifluoromethyl)phenoxy]phenyl]hydrazine carboxylate], the inhibition of growth at 50 ppm with Phytophthora infestans [1] turned out to be 79%; in the test with Rhizoctonia solani, 63%; in the test on Pythium ultimum, 100%; in the test with Fusarium nivale, 82%; in the test with Botrytis cinerea [4] it was 100%. Further, the “Drench Application (Percent Control) Barley Powdery Mildew” value with Barley Powdery Mildew is listed as 0%. For the same compound, the pest or weed control at 300 ppm with Pyricularia oryzae was 10%; in test [3] it was 62%; in the test with Helminthosporium sativum it was 0%. For the same compound, the “Drench Application (Percent Control) Cucumber Powdery Mildew” value in the test with Cucumber Powdery Mildew is reported as 0%. The “Foliar Application (Percent Control) Geranium Gray Mold” value with Botrytis cinerea [5] stood at 87%. The “Foliar Application (Percent Control) Bean Rust” value with Uromyces appendiculatus stood at 0%.

In the case of `CC(=O)NNc1ccc(Oc2cccc(C(F)(F)F)c2)c(F)c1` [Compound 7, N′-{3-fluoro-4-[3-(trifluoromethyl)phenoxy]phenyl}acetohydrazide], the inhibition of growth at 10 ppm came to 0% with Phytophthora infestans [1]; 80% in the test on Rhizoctonia solani; 8% in the test with Pythium ultimum; 8% in the test on Fusarium nivale; 30% in the test with Botrytis cinerea [4]. For the same compound, in the test on Phytophthora infestans [2], the “Foliar Application (Percent Control) Tomato Late Blight” value came out at 0%. The pest or weed control at 300 ppm turned out to be 0% in the test with Pyricularia oryzae, 80% in test [3] and 80% in the test on Helminthosporium sativum. In addition, in the test with Botrytis cinerea [5], the “Foliar Application (Percent Control) Geranium Gray Mold” value stood at 80%.

With `CC(C)OC(=O)NNc1ccc(-c2cccc(C(F)(F)F)c2)c(F)c1` [Compound 8, isopropyl 2-[2-fluoro-3′-(trifluoromethyl)-1,1′-biphenyl-4-yl]hydrazine-carboxylate], the inhibition of growth at 10 ppm in the test with Phytophthora infestans [1] was found to be 18%; with Rhizoctonia solani, 58%; in the test with Pythium ultimum it was 26%; with Fusarium nivale, 22%; in the test on Botrytis cinerea [4] it was 63%. Further, the “Foliar Application (Percent Control) Tomato Late Blight” value with Phytophthora infestans [2] is 0%. Further, the pest or weed control at 300 ppm was found to be 70% in the test on Pyricularia oryzae, 0% in test [3] and 98% in the test with Helminthosporium sativum. Besides, in the test on Botrytis cinerea [5], the “Foliar Application (Percent Control) Geranium Gray Mold” value is recorded as 90%.

On to `CC(C)OC(=O)N=Nc1ccc(Oc2cccc(C(F)(F)F)c2)cc1` [Compound 9, 1-methylethyl [4-[3-(trifluoromethyl)phenoxy]phenyl]diazene carboxylate], for which the inhibition of growth at 100 ppm with Phytophthora infestans [1] turned out to be 9%; in the test with Rhizoctonia solani it was 22%; in the test on Pythium ultimum it was 0%; with Fusarium nivale it was 75%; with Botrytis cinerea [4], 77%. The “Drench Application (Percent Control) Barley Powdery Mildew” value in the test on Barley Powdery Mildew is recorded as 25%. Further, the pest or weed control at 300 ppm was 98% with Pyricularia oryzae, 15% in test [3] and 97% in the test on Helminthosporium sativum. In the test with Sclerotium rolfsii, the “Percent Control Sclerotium rolfsii” value came to 91%. In addition, the “Drench Application (Percent Control) Cucumber Powdery Mildew” value in the test on Cucumber Powdery Mildew was determined as 0%. Besides, the “Foliar Application (Percent Control) Bean Rust” value with Uromyces appendiculatus turned out to be 45%.

With `CC(C)OC(=O)N1CN(C)CN1c1ccc(Oc2cccc(C(F)(F)F)c2)c(F)c1` [Compound 10, 1-methylethyl 2-[3-fluoro-4-[3-(trifluoromethyl)phenoxy]phenyl]-4-methyl-1,2,4-triazolidine-1-carboxylate], the inhibition of growth at 100 ppm amounted to 0% in the test on Phytophthora infestans [1]; 79% with Rhizoctonia solani; 0% in the test on Pythium ultimum; 0% in the test with Fusarium nivale; 0% in the test on Botrytis cinerea [4]. Further, the pest or weed control at 300 ppm in the test with Pyricularia oryzae was found to be 0%; in test [3], 100%; in the test on Helminthosporium sativum, 90%. Moreover, the “Foliar Application (Percent Control) Geranium Gray Mold” value in the test on Botrytis cinerea [5] was 0%.

Take `CCC(=NNc1ccc(Oc2cccc(C(F)(F)F)c2)c(F)c1)[N+](=O)[O-]` [Compound 12, 1-{3-fluoro-4-[3-(trifluoromethyl)phenoxy]phenyl}-2-(1-nitropropylidene)-hydrazine]: the inhibition of growth at 10 ppm is 0% in the test on Phytophthora infestans [1]; 68% in the test on Rhizoctonia solani; 3% with Pythium ultimum; 20% with Fusarium nivale; 18% in the test on Botrytis cinerea [4]. The “Foliar Application (Percent Control) Tomato Late Blight” value with Phytophthora infestans [2] worked out at 0%. In addition, the pest or weed control at 300 ppm was determined as 0% with Pyricularia oryzae, 80% in test [3] and 0% with Helminthosporium sativum. The “Foliar Application (Percent Control) Geranium Gray Mold” value with Botrytis cinerea [5] is 0%.
